Test results reported in article PMC6429200, “Synthesis and Broad Antiviral Activity of Novel 2-aryl-isoindolin-1-ones towards Diverse Enterovirus A71 Clinical Isolates” (Molecules, 2019).
“And” between values parts separate entries of the source, which are not always exact repeats. Equal entries are not always repeated.

Tests used:
Format in all cases: cell-based, Enterovirus 71 (EV-A71)
[1] = tested on: EV-A71 strain Jiangsu52 (JS52); assay: CPE inhibition assay for anti-EV-A71 in Vero cells, Jiangsu52 strain
Description: (§1) An in-vitro antiviral assay was established using the Africa monkey kidney cell line Vero which was infected with different EV-A71 clinical isolates (BrCr, H, Shenzhen98 and Jiangsu52). A total of 24 synthetic compounds were initially screened in such an assay to determine their inhibitory effect on virus replication at 3-fold diluted concentrations serial (400~0.18 μM). The 50% effective concentration (EC50) of each compound was calculated according to its inhibitory rate values with the Reed–Muench method. The 50% cytotoxic concentration (CC50) was defined as the concentration that inhibited 50% cellular growth in comparison with the controls. The selectivity index (SI) was calculated as CC50/EC50. […] Generally, the EV-A71 H strain was less sensitive to most of the active compounds as compared to the other virus strains.
EV-A71 strain ShenZhen98 (SZ98) was isolated from the throat swab sample of an HFMD case which occurred in 1998 in China. This was kindly provided by Dr. Qi Jin, Institute of Pathogen Biology, Chinese Academy of Medical Science and Peking Union Medical School, Beijing, China. EV-A71 strains BrCr (VR-1775) and H (VR-1432) were purchased from the ATCC. The EV-A71 strain JS52 was a kind gift from Dr. Xiangzhong Ye, Beijing Wantai Biological Pharmacy Enterprise Co., Ltd. EV-A71 were all passaged in Vero cells.
(§2) The anti-EV-A71 activity of compounds was determined by the CPE inhibition method. Briefly, cells (3 × 10^4 cells/well) were plated into 96-well culture plates for incubation for 24 h. The medium was then removed and cells were infected with EV-A71 with 100TCID50 (50% tissue culture infective doses) in serum-free medium for 1 h at 37 °C. Then, the unbound viruses were removed and various concentrations of compounds were supplemented and incubated for another 48 h. The EC50 was determined by the Reed–Muench method. The selectivity index was calculated as the ratio of CC50/EC50 [15].

[2] = tested on: four EV-A71 strains (BrCr, H, Shenzhen98, Jiangsu52); assay: CPE inhibition assay, summary over four EV-A71 strains
Description: as §1, §2

EV-A71 = assay: Time-of-addition assay (VP1 Western blot) in Vero cells
Description: In order to explore the inhibitory effect of compound A3 on the EV-A71 viral life cycle, EV-A71 viral protein VP1 was measured via Western blot when Vero cells were treated with compound A3 prior to, during, or after EV-A71 viral incubation (Figure 3). […] It is likely that compound A3 inhibits the EV-A71 replication by acting on the virus entry stage.
The antiviral activity of the tested compound was examined at different time periods prior to, during or after viral infection. Briefly, Vero cells (9 × 10^5 cells/well) were inoculated with EV-A71 (MOI = 1.0) at 37 °C for 1 h. The media with or without treatment were added during the periods of −24~0 h, −1~0 h, 0~10 h, 1~10 h, 2~10 h, 4~10 h, 6~10 h and 8~10 h. After each incubation period, the collected cells were washed with PBS, and then the viral protein was determined by Western blot.
Figure 3 Time-of-addition analysis of Vero cells with compound A3 treatment prior to, during or after EV-A71 infection. (A) Schematic illustration of experiment to determine which stage of EV-A71 viral cycle was inhibited by compound A3 in Vero cells. […] For all experiments, the collected cells were washed with PBS after 10 h post viral infection, and viral VP1 expression was determined via Western blot assay.

## O=C1c2ccccc2CN1c1ccc(Cl)cc1 [Compound A3, 2-(4-chlorophenyl)isoindolin-1-one]
[1]; CC50/EC50
  Jiangsu52 SI: 199
[1]; Enterovirus A, EVA71, Vero cells, 100TCID50, 48 h
  EC50: 1.29 ± 0.24 µM
[2]; CC50/EC50, range over four strains
  SI towards four EV-A71 strains: 168-199 and 98–199
[2]; Enterovirus A, EV71 / EVA71, read-out: Anti-EV71 IC50
  IC50: 1.29 to 1.53 µM
[2]; Enterovirus A, EVA71, Vero, read-out: EC50 towards four EV-A71 strains
  EC50: 1.23 to 1.76 µM
[2]; relative to reference compound pirodavir
  EC50 fold higher than pirodavir: 2–4 fold
EV-A71; A3 4 μM at 0, 1 and 2 h after infection (MOI = 1.0), cells collected 10 h post infection, not at the other time periods
  EV-A71 VP1 expression in Vero cells: significantly decreased
EV-A71; A3 added 24 or 1 h prior to infection
  time-of-addition: effect of pretreatment: did not display any resistance to infection by EV-A71
EV-A71; A3 added at 1 or 2 h after EV-A71 infection
  time-of-addition: efficacy, addition after infection: significant efficacy
EV-A71; A3 added during the inoculation of the virus
  time-of-addition: inhibitory activity, addition during inoculation: maximum inhibitory activity
